Here are results for 37 compounds from patent publication US20240279236A1, “COMPOUNDS AND METHODS OF TREATING TUBERCULOSIS” (Fimbrion Therapeutics, Inc., priority 2021, published 2024).

The test concerns WT Mtb Erdman strain. The test can be described thus: Microplate Alamar Blue Assay (MABA), Mtb growth inhibition. In kind it is cell-based, Mycobacterium tuberculosis. Particulars: Mycobacterium tuberculosis, ERDMAN, 168 h, Middlebrook 7H9 media, 7 days at 37° C. in 5% CO2. (Alamar Blue is a resazurin reagent that responds to reducing activity.)
A word on the IC50: it is the point on the concentration scale where inhibition reaches its midpoint. Lower therefore signals greater potency in that assay. Turning to `CCc1nc(NCCCc2ccc(-c3ccc(OC4CC4)cc3)cc2)c2cc(C)sc2n1` [Example 305, N-(3-(4′-cyclopropoxy-[1,1′-biphenyl]-4-yl)propyl)-2-ethyl-6-methylthieno[2,3-d]pyrimidin-4-amine], half-maximal inhibition (IC50) required 57 nM.
Then `CCc1nc(NCCCc2c[nH]nn2)c2cc(C)sc2n1` [Example 562, N-(3-(1H-1,2,3-triazol-4-yl)propyl)-2-ethyl-6-methylthieno[2,3-d]pyrimidin-4-amine], with more than 10000 nM; and `Cc1cc2c(NCCCc3ccc(-c4ccc(OC(F)(F)F)cc4)cc3)nc(-c3c(C)noc3C)nc2s1` [Example 449, 2-(3,5-dimethylisoxazol-4-yl)-6-methyl-N-(3-(4′-(trifluoromethoxy)-[1,1′-biphenyl]-4-yl)propyl)thieno[2,3-d]pyrimidin-4-amine], with more than 1000 nM; and `CCc1nc(NCCCc2cccc(-c3ccccc3)c2)c2cc(C)sc2n1` [Example 270, N-(3-([1,1′-biphenyl]-3-yl)propyl)-2-ethyl-6-methylthieno[2,3-d]pyrimidin-4-amine], with 520 nM.
For the compound `Cc1cc2c(NCCCc3ccc(-c4ccc(F)c(F)c4)cc3)nc(C(F)(F)F)nc2s1` [Example 287, N-(3-(3′,4′-difluoro-[1,1′-biphenyl]-4-yl)propyl)-6-methyl-2-(trifluoromethyl) thieno[2,3-d]pyrimidin-4-amine], the IC50 turned out to be 190 nM. Compared with the last compound, the IC50 is about 2.7-fold lower.
Turning to `Cc1cc2c(NCCCc3ccc(-c4cnc(Cl)cn4)cc3)nc(-c3ccoc3)nc2s1` [Example 395, N-(3-[4-(5-chloropyrazin-2-yl)phenyl]propyl)-2-(furan-3-yl)-6-methylthieno[2,3-d]pyrimidin-4-amine], the IC50 came out at 5 nM. This IC50 is about 38-fold lower than that of the compound before.
As for `CCc1nc(NCCCc2ccc(OC(F)(F)F)cc2)c2cc(C)sc2n1` [Example 34, 2-ethyl-6-methyl-N-(3-(4-(trifluoromethoxy)phenyl)propyl)thieno[2,3-d]pyrimidin-4-amine], 270 nM corresponded to half-maximal inhibition (IC50). Compared with the last compound, the IC50 is about 54-fold higher.
`Cc1nc2c(NCCCc3ccc(-c4cnc(F)cn4)cc3)nc(-c3ncon3)nc2s1` [Example 457, N-(3-(4-(5-fluoropyrazin-2-yl)phenyl)propyl)-2-methyl-5-(1,2,4-oxadiazol-3-yl)thiazolo[5,4-d]pyrimidin-7-amine] came in with an IC50 of more than 1000 nM.
Consider `Cc1cc2c(N[C@@H]3C[C@H]3c3ccc(F)c(F)c3)nc(-c3ccncc3)nc2s1` [Example 47, N-((1R,2S)-2-(3,4-difluorophenyl)cyclopropyl)-6-methyl-2-(pyridin-4-yl)thieno[2,3-d]pyrimidin-4-amine], for which the IC50 is more than 8800 nM.
Consider `CCc1nc(NCCCc2cccc3ccccc23)c2cc(C)sc2n1` [Example 198, 2-ethyl-6-methyl-N-(3-(naphthalen-1-yl)propyl)thieno[2,3-d]pyrimidin-4-amine], for which the IC50 is 170 nM.
For the compound `CCc1nc(N[C@@H]2C[C@H]2c2ccccc2)c2cc(C)sc2n1` [Example 6, 2-ethyl-6-methyl-N-((1R,2S)-2-phenylcyclopropyl) thieno[2,3-d]pyrimidin-4-amine], inhibition was half-maximal at 440 nM (IC50).
`CNc1nc(NCCCc2ccc(-c3ccc(N(C)C)cc3)cc2)c2cc(C)sc2n1` [Example 539, N4-(3-(4′-(dimethylamino)-[1,1′-biphenyl]-4-yl)propyl)-N2,6-dimethylthieno[2,3-d]pyrimidine-2,4-diamine]: half-maximal inhibition (IC50) required 68 nM. This IC50 lies about 6.5-fold lower than the previous one.
For the compound `CCN(C)c1nc(NCCCc2ccc(-c3ccc(OC(F)(F)F)cc3)cc2)c2cc(C)sc2n1` [Example 538, N2-ethyl-N2,6-dimethyl-N4-(3-(4′-(trifluoromethoxy)-[1,1′-biphenyl]-4-yl)propyl)thieno[2,3-d]pyrimidine-2,4-diamine], the IC50 came to 100 nM.
Compound `Cc1cc2c(NCCCc3ccc(S(C)(=O)=O)cc3)nc(C(F)(F)F)nc2s1` [Example 242, 6-methyl-N-(3-(4-(methylsulfonyl)phenyl)propyl)-2-(trifluoromethyl) thieno[2,3-d] pyrimidin-4-amine] had an IC50 of more than 10000 nM.
`Cc1cc2c(NCCCc3ccc(-c4ccc(F)cn4)cc3)nc(-c3ccoc3)nc2s1` [Example 382, N-(3-[4-(5-fluoropyridin-2-yl)phenyl]propyl)-2-(furan-3-yl)-6-methylthieno[2,3-d]pyrimidin-4-amine]: the midpoint of inhibition, the IC50, lay at 8 nM. In other words, the single-digit nanomolar range.
Next, `Cc1cc2c(NC/C=C/c3ccccc3)nc(Cl)nc2s1` [Example 225, 2-chloro-N-cinnamyl-6-methylthieno[2,3-d]pyrimidin-4-amine]: 390 nM; `Cc1cc2c(NCCCc3ccccc3)nc(CC(C)C)nc2s1` [Example 134, 2-isobutyl-6-methyl-N-(3-phenylpropyl)thieno [2,3-d]pyrimidin-4-amine]: 440 nM.
Turning to `CCc1nc(NC(C)CCc2ccccc2)c2cc(C)sc2n1` (stereo not shown) [Example 23, 2-ethyl-6-methyl-N-(4-phenylbutan-2-yl)thieno[2,3-d]pyrimidin-4-amine], 8300 nM corresponded to half-maximal inhibition (IC50).
In turn, `CCc1nc(NCCCc2ccc(-c3ccc(C(F)(F)F)cn3)cc2)c2cc(C)sc2n1` [Example 370, 2-ethyl-6-methyl-N-(3-(4-(5-(trifluoromethyl)pyridin-2-yl)phenyl)propyl)thieno[2,3-d]pyrimidin-4-amine] had an IC50 of 25 nM. This IC50 is about 330-fold lower than that of the compound before.
As for `Cc1cc2c(NCCCc3ccc(OC(F)(F)F)cc3)nc(-c3ccccn3)nc2s1` [Example 123, 6-methyl-2-(pyridin-2-yl)-N-(3-(4-(trifluoromethoxy)phenyl)propyl)thieno [2,3-d]pyrimidin-4-amine], the IC50 turned out to be 1800 nM.
Compound `CCc1nc(NCCCNc2ccccc2)c2cc(C)sc2n1` [Example 80, N1-(2-ethyl-6-methylthieno[2,3-d]pyrimidin-4-yl)-N3-phenylpropane-1,3-diamine] had a concentration for half-maximal inhibition (IC50) of 470 nM.
Next, `Cc1cc2c(NCCCc3ccc(F)c(F)c3)nc(C(F)(F)F)nc2s1` [Example 60, N-(3-(3,4-difluorophenyl)propyl)-6-methyl-2-(trifluoromethyl)thieno [2,3-d]pyrimidin-4-amine]: 4900 nM.
In turn, `Cc1cc2c(NCCCc3ccccc3)nc(C3CCCC3)nc2s1` [Example 94, 2-cyclopentyl-6-methyl-N-(3-phenylpropyl)thieno [2,3-d]pyrimidin-4-amine] had an IC50 of 930 nM.
In turn, `Cc1nc2c(NCCCc3ccc(-c4cnc(F)cn4)cc3)nc(-c3ccon3)nc2s1` [Example 465, N-(3-[4-(5-fluoropyrazin-2-yl)phenyl]propyl)-2-methyl-5-(1,2-oxazol-3-yl)-[1,3]thiazolo[5,4-d]pyrimidin-7-amine] yielded an IC50 of 180 nM.
`Cc1cc2c(NCCCc3ccc(-c4ccc(OC(F)(F)F)cc4)c(F)c3)nc(-c3ccoc3)nc2s1` [Example 315, N-(3-(2-fluoro-4′-(trifluoromethoxy)-[1,1′-biphenyl]-4-yl)propyl)-2-(furan-3-yl)-6-methylthieno[2,3-d]pyrimidin-4-amine] came in with an IC50 of 12 nM.
`Cc1cc2c(NC/C=C/c3ccccc3)nc(C(F)(F)F)nc2s1` [Example 152, N-cinnamyl-6-methyl-2-(trifluoromethyl) thieno[2,3-d] pyrimidin-4-amine]: the midpoint of inhibition, the IC50, lay at 440 nM.
Next, `CCc1nc(NCCc2ccccc2C(F)(F)F)c2cc(C)sc2n1` [Example 21, 2-ethyl-6-methyl-N-(2-(trifluoromethyl)phenethyl)thieno[2,3-d]pyrimidin-4-amine]: more than 10000 nM.
`CCc1nc(NCCc2ccncc2)c2cc(C)sc2n1` [Example 12, 2-ethyl-6-methyl-N-(2-(pyridin-4-yl)ethyl)thieno[2,3-d]pyrimidin-4-amine] returned an IC50 of more than 10000 nM.
In turn, `Cc1cc2c(NCCCc3ccc(-c4ncc(C(F)(F)F)cn4)cc3)nc(N(C)C)nc2s1` [Example 558, N2,N2,6-trimethyl-N4-(3-(4-[5-(trifluoromethyl)pyrimidin-2-yl]phenyl)propyl)thieno[2,3-d]pyrimidine-2,4-diamine] had an IC50 of less than 4 nM.
As for `Cc1cc2c(NCCCc3ccc(Br)cc3F)nc(-c3ccoc3)nc2s1` [Example 211, N-(3-(4-bromo-2-fluorophenyl)propyl)-2-(furan-3-yl)-6-methylthieno[2,3-d]pyrimidin-4-amine], the half-maximal inhibitory concentration (IC50) was determined as 120 nM.
Compound `Cc1cc2c(NCCCc3ccc(-c4ccc(C(=O)O)cc4)cc3)nc(-c3ccoc3)nc2s1` [Example 601, 4′-(3-((2-(furan-3-yl)-6-methylthieno[2,3-d]pyrimidin-4-yl)amino)propyl)-[1,1′-biphenyl]-4-carboxylic acid] had an IC50 of 530 nM.
As for `Cc1cc2c(NCCCc3cccc4ccccc34)nc(C(F)(F)F)nc2s1` [Example 205, 6-methyl-N-(3-(naphthalen-1-yl)propyl)-2-(trifluoromethyl) thieno[2,3-d] pyrimidin-4-amine], the IC50 was determined as 1200 nM.
As for `COc1cnc(-c2ccc(CCCNc3nc(-c4ccoc4)nc4sc(C)cc34)cc2)cn1` [Example 380, 2-(furan-3-yl)-N-(3-[4-(5-methoxypyrazin-2-yl)phenyl]propyl)-6-methylthieno[2,3-d]pyrimidin-4-amine], the IC50 came out at 17 nM.
Next, `CCc1nc(N[C@H]2C[C@@H]2c2ccccc2)c2cc(C)sc2n1` [Example 2, 2-ethyl-6-methyl-N-((1S,2R)-2-phenylcyclopropyl) thieno[2,3-d]pyrimidin-4-amine]: 3100 nM; `Cc1cc2c(NCCCc3ccc(-c4ccc(C5CC5)cc4)cc3)nc(-c3ccoc3)nc2s1` [Example 429, N-(3-(4′-cyclopropyl-[1,1′-biphenyl]-4-yl)propyl)-2-(furan-3-yl)-6-methylthieno[2,3-d]pyrimidin-4-amine]: 20 nM.
For `CCc1nc(NCCCc2ccc(-c3ccc(N(C)C)cc3)cc2)c2cc(C)sc2n1` [Example 299, N-(3-(4′-(dimethylamino)-[1,1′-biphenyl]-4-yl)propyl)-2-ethyl-6-methylthieno[2,3-d]pyrimidin-4-amine], half-maximal inhibition (IC50) was put at 26 nM.
The compound `Cc1cc2c(N[C@@H]3C[C@H]3c3ccc(F)c(F)c3)nc(-c3ccc(F)cc3)nc2s1` [Example 56, N-((1R,2S)-2-(3,4-difluorophenyl)cyclopropyl)-2-(4-fluorophenyl)-6-methylthieno[2,3-d]pyrimidin-4-amine] displayed an IC50 of 4200 nM. This IC50 is about 160-fold higher than that of the compound before.
